Experimental data as given in US9090599B2, “Heteroarylmethyl amides” (Hoffman-La Roche Inc., priority 2010, dated 2015).
Read-outs that look alike come from different tables or passages of the source.

What was measured:
human CB1 receptor = target: T1, human CB1 receptor (Homo sapiens, UniProt P21554); test: CB1 receptor affinity, [3H]-CP-55,940 displacement, HEK cell membranes; format: binding; settings: read-out: CB1 receptor affinity [% inhibition @ 10 μM]
T1 construct: expressed in transfected cells; host or cells: human embryonic kidney (HEK) cells, Semliki Forest Virus system, membrane preparations
T1 sequence (P21554 whole entry): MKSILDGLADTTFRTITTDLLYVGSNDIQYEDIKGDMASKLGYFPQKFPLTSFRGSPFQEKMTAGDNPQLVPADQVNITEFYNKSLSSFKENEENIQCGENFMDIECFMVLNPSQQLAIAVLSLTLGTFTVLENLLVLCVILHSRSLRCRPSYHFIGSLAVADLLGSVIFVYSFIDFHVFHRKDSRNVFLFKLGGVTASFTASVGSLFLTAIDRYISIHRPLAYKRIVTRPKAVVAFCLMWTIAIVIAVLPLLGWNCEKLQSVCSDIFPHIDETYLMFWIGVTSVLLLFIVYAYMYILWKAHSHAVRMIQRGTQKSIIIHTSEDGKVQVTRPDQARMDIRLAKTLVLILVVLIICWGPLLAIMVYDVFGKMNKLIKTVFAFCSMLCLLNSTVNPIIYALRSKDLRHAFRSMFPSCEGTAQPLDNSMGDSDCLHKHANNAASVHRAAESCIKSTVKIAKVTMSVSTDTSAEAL
Experimental: (§1) The affinity of the compounds of the invention for cannabinoid receptors was determined using membrane preparations of human embryonic kidney (HEK) cells in which the human CB1 receptor is transiently transfected using a Semliki Forest Virus system in conjunction with [3H]-CP-55,940 as radioligand. After incubation of freshly prepared cell membrane preparation with the [^3H]-ligand, with or without addition of compounds of the invention, separation of bound and free ligand was performed by filtration over glass fiber filters. Radioactivity on the filter was measured by scintillation counting.
(§2) The ability of the compounds to displace the radioligand [^3H]-CP-55,940 was measured at a concentration of 10 μM and values provided as [% inhibition @ 10 μM] both for the CB 1 and CB2 receptor assay, The lower % inhibition is, the lower the likelihood of side effects based on CB1 or CB2 receptor inhibition is.

human CB2 receptor = target: T2, human CB2 receptor (Homo sapiens, UniProt P34972); test: CB2 receptor affinity, [3H]-CP-55,940 displacement, HEK cell membranes; format: binding; settings: 10 μM compound, radioligand [3H]-CP-55,940
T2 construct: expressed in transfected cells; host or cells: human embryonic kidney (HEK) cells, Semliki Forest Virus system, membrane preparations
T2 sequence (P34972 whole entry): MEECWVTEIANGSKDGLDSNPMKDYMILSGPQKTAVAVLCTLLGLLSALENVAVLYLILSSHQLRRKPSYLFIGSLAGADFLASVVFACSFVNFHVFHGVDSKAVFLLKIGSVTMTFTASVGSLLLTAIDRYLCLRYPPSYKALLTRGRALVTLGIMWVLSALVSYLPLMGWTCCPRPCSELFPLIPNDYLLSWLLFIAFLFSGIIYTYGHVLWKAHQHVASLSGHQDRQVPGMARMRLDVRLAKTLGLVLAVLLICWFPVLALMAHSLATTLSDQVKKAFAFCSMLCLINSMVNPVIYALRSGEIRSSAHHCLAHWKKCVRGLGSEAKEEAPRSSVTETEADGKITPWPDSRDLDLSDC
Experimental: as §1, with “cannabinoid CB2” for “cannabinoid”, “CB2” for “CB1”, “[^3H]-CP-55,940” for “[3H]-CP-55,940”
as §2

ABCA1 protein = test: Detection of upregulation of ABCA1 protein in THP-1 macrophage cells (ApoA-I binding, high content imaging); format: cell-based; settings: 24 hrs with compound, AlexaFluor 647 ApoA-I binding, read-out: ABCA1 protein increasing efficacy EC50
Experimental: The ability of compounds of the invention to increase the level of ABCA1 protein is determined in replicate cultures of THP-1 macrophage cells in 96-well microplates. Cells are plated at an initial density of 100,000 cells/well in 100 μl medium and differentiated to adherent macrophages with the addition of PMA (100 nM) for 68 hrs in 10% fetal bovine serum, 3 μl/L of b-mercaptoethanol, RPMI-1640 medium. Then, cells are incubated with RPMI-1640 medium containing 1% FCS, 25 μg/ml acetylated LDL, for 24 hours at 37°. Following incubation with acetylated LDL, cells are washed twice with 50 μl PBS and incubated with 100 μl of RPMI-1640 medium containing the compound of interest solubilized in DMSO for an additional 24 hrs. The final DMSO concentration in presence of cells is maintained at 0.5%. ApoA-I binding assay using High Content Image Analysis is initiated by replacing with fresh medium, RPMI without Phenol Red, 0.2% BSA containing AlexaFluor®647 labeled ApoA-I for 2 h/37° C./5% CO2. Then, cells are fixed with 4% Formaldehyde in PBS (15 min, RT). Following Nuclei are stained with Hoechst solution (3 μM PBS) and Cytoplasm with Cell Mask Blue (2 μg/ml PBS), 15 min, RT. Finally the stained cells are fixed with a second round of formaldehyde treatment. Fixed stained cells are washed and kept in PBS at 4° C. and can be read immediately until one month after preparation.
The Alexa Fluor 647-labeled Apolipoprotein A-I (20 nM) was prepared as follows: Human recombinant Apolipoprotein A-I (ApoA-I) was exchanged to a buffer of 0.02 M NaHCO3 at pH 8.2 on an NAP desalting column (GE Healthcare) and brought to a concentration to 40 μM (1.13 mg/ml) by adjustment with the same buffer. The ApoA-I was fluorescently labeled by incubation with Alexa Fluor carboxylic acid succimidyl ester. (Alexa Fluor 647, Invitrogen A-20006) at a 2:1 molar ratio (Alexa to ApoA-I) for 1 h under shaking at RT. The remaining unconjugated label was removed by buffer exchange to 0.02M NaHCO3 at pH 8.2.
Imaging and data collection were performed on an OPERA confocal microplate imaging reader using a 20× water immersion objective and UV360 or 405 laser to identify the cell nuclei and a 635 laser to identify the fluorescent ApoA-I. Eight fields of view are captured per well. Image capture and analysis was performed with the Acapella software. Background fluorescence detected in control wells without ApoA-I was subtracted.
Using XLfit3 program (ID Business Solutions Ltd. UK), the model 205 for Dose Response One Site is used to calculate the EC50 values. […] Preferably, the compounds of the present invention have EC50 values in a range of 0.1 μM to 3 μM.

[1] = 10 μM compound, radioligand [3H]-CP-55,940

Compound | inhibition at 10 µM (human CB1 receptor; [1]) [%] | inhibition at 10 µM (human CB2 receptor) [%] | EC50 (ABCA1 protein) [nM] | inhibition at 10 µM (human CB1 receptor) [%]
COc1cc(CNC(=O)c2cnc(O[C@@H](C)C(F)(F)F)c(-c3ccc(Cl)cc3)n2)on1 [Example 29, (S)-6-(4-chlorophenyl)-N-((3-methoxyisoxazol-5-yl)methyl)-5-(1,1,1-trifluoropropan-2-yloxy)pyrazine-2-carboxamide] | 27 | 17 | 1870 | –
O=C(NCc1nc(C(F)(F)F)no1)c1cc(-c2ccc(Cl)cc2)c(OCC(F)(F)F)nn1 [Example 46, 5-(4-chloro-phenyl)-6-(2,2,2-trifluoro-ethoxy)-pyridazine-3-carboxylic acid (3-trifluoromethyl-[1,2,4]oxadiazol-5-ylmethyl)-amide] | 30 | 0 | 780 | –
O=C(NCc1noc(C(F)(F)F)n1)c1cnc(OCC(F)(F)F)c(-c2ccc(Cl)cc2)c1 [Example 12, 5-(4-chloro-phenyl)-6-(2,2,2-trifluoro-ethoxy)-N-(5-trifluoromethyl-[1,2,4]oxadiazol-3-ylmethyl)-nicotinamide] | 43 | -4 | 1180 | –
O=C(NCc1nc(C(F)(F)F)no1)c1cnc(OC2CCC2)c(-c2ccc(F)c(F)c2)c1 [Example 91, 6-cyclobutoxy-5-(3,4-difluorophenyl)-N-((3-(trifluoromethyl)-1,2,4-oxadiazol-5-yl)methyl)nicotinamide] | 23 | 12 | 620 | –
Cc1cc(-c2cc(C(=O)NCc3nc(C(F)(F)F)no3)cnc2OCC(F)(F)F)ccc1Cl [Example 72, 5-(4-chloro-3-methylphenyl)-6-(2,2,2-trifluoroethoxy)-N-((3-(trifluoromethyl)-1,2,4-oxadiazol-5-yl)methyl)nicotinamide] | 34 | -1 | 500 | –
O=C(NCc1cc(C(F)(F)F)on1)c1cc(-c2ccc(Cl)cc2)c(OCC(F)(F)F)nn1 [Example 67, 5-(4-chloro-phenyl)-6-(2,2,2-trifluoro-ethoxy)-pyridazine-3-carboxylic acid (5-trifluoromethyl-isoxazol-3-ylmethyl)-amide] | 25 | 3 | 780 | –
CCCc1nc(CNC(=O)c2cnc(OCC3CC3)c(-c3ccc(Cl)cc3)c2)cs1 [Example 11, 5-(4-chloro-phenyl)-6-cyclopropylmethoxy-N-(2-propyl-thiazol-4-ylmethyl)-nicotinamide] | – | 12 | 1500 | 25
O=C(NCc1nc(C(F)(F)F)no1)c1cnc(OCC(F)(F)F)c(-c2ccc(F)c(F)c2)c1 [Example 89, 5-(3,4-difluorophenyl)-6-(2,2,2-trifluoroethoxy)-N-((3-(trifluoromethyl)-1,2,4-oxadiazol-5-yl)methyl)nicotinamide] | 28 | 4 | 1960 | –
O=C(NCc1nc(C2CC2)no1)c1cc(-c2ccc(Cl)cc2)c(OCC(F)(F)F)nn1 [Example 48, 5-(4-chloro-phenyl)-6-(2,2,2-trifluoro-ethoxy)-pyridazine-3-carboxylic acid (3-cyclopropyl-[1,2,4]oxadiazol-5-ylmethyl)-amide] | 35 | 19 | 730 | –
CCc1nc(CNC(=O)c2cnc(OCC(F)(F)F)c(-c3ccc(Cl)cc3)c2)cs1 [Example 7, 5-(4-chloro-phenyl)-N-(2-ethyl-thiazol-4-ylmethyl)-6-(2,2,2-trifluoro-ethoxy)-nicotinamide] | 22 | 6 | 1500 | –
CC(C)c1cc(CNC(=O)c2ncc(OCC(F)(F)F)c(-c3ccc(Cl)cc3)n2)on1 [Example 44, 4-(4-chloro-phenyl)-5-(2,2,2-trifluoro-ethoxy)-pyrimidine-2-carboxylic acid (3-isopropyl-isoxazol-5-ylmethyl)-amide] | 29 | 8 | 1020 | –
CC(C)c1cc(CNC(=O)c2ccc(OCC(F)(F)F)c(-c3ccc(Cl)cc3)n2)on1 [Example 64, 6-(4-chloro-phenyl)-5-(2,2,2-trifluoro-ethoxy)-pyridine-2-carboxylic acid (3-isopropyl-isoxazol-5-ylmethyl)-amide] | 33 | 7 | 860 | –
CCCn1ccc(CNC(=O)c2cnc(OCC(F)(F)F)c(-c3ccc(Cl)cc3)c2)n1 [Example 14, 5-(4-chloro-phenyl)-N-(1-propyl-1H-pyrazol-3-ylmethyl)-6-(2,2,2-trifluoro-ethoxy)-nicotinamide] | 48 | 12 | 950 | –
CCCn1ccc(CNC(=O)c2cc(-c3ccc(Cl)cc3)c(OCC(F)(F)F)cn2)n1 [Example 4, 4-(4-chloro-phenyl)-5-(2,2,2-trifluoro-ethoxy)-pyridine-2-carboxylic acid (1-propyl-1H-pyrazol-3-ylmethyl)-amide] | 26 | 33 | 2800 | –
COc1cc(CNC(=O)c2cc(-c3ccc(Cl)c(C)c3)c(OCC(F)(F)F)cn2)on1 [Example 74, 4-(4-chloro-3-methylphenyl)-N-((3-methoxyisoxazol-5-yl)methyl)-5-(2,2,2-trifluoroethoxy)picolinamide] | – | 22 | 1300 | 11
O=C(NCc1cc(C(F)(F)F)no1)c1cc(-c2ccc(Cl)cc2)c(OCC(F)(F)F)nn1 [Example 60, 5-(4-chloro-phenyl)-6-(2,2,2-trifluoro-ethoxy)-pyridazine-3-carboxylic acid (3-trifluoromethyl-isoxazol-5-ylmethyl)-amide] | 30 | -3 | 750 | –
O=C(NCc1nc(C(F)(F)F)no1)c1cnc(OC[C@H]2CCOC2)c(-c2ccc(Cl)cc2)c1 (stereo in doubt) [Example 104] | 39 | 9 | – | –
CC(C)c1cc(CNC(=O)c2ccc(OCC(F)(F)F)c(-c3ccc(Cl)cc3)n2)no1 [Example 53, 6-(4-chloro-phenyl)-5-(2,2,2-trifluoro-ethoxy)-pyridine-2-carboxylic acid (5-isopropyl-isoxazol-3-ylmethyl)-amide] | 43 | 23 | – | –
C[C@H](Oc1ncc(C(=O)NCc2nc(C(F)(F)F)no2)nc1-c1ccc(Cl)cc1)C(F)(F)F [Example 36, (S)-6-(4-chlorophenyl)-N-((3-(trifluoromethyl)-1,2,4-oxadiazol-5-yl)methyl)-5-(1,1,1-trifluoropropan-2-yloxy)pyrazine-2-carboxamide] | 36 | 14 | – | –
O=C(NCc1csc(C2CC2)n1)c1ccc(OCC2CC2)c(-c2ccc(Cl)cc2)n1 [Example 57, 6-(4-chloro-phenyl)-5-cyclopropylmethoxy-pyridine-2-carboxylic acid (2-cyclopropyl-thiazol-4-ylmethyl)-amide] | – | 36 | – | 31
